According to patent publication US6572603B1, “Vitamin d solution holder and containers for transfusions” (Otsuka Pharmaceutical Factory, Inc., priority 1998, dated 2003):

Columns and labels:
Format in all cases: physicochemical
[1] = Vitamin content of solution (C) in polyolefin holders after autoclaving and storage at 40° C. for four months, measured through HPLC (Example 3)
Description: Solution (C) (4 ml) prepared in Example 1 was charged into each of holders made of the materials shown in Table 3, to thereby obtain a holder which contains a solution of vitamin D3. Each of these holders containing a solution of vitamin D3 was subjected to autoclaving and wrapped in a nylon multi-layered-film bag together with a deoxidizing agent (trade name: Ageless, product of Mitsubishi Gas Chem. Co., Inc.). The thus-wrapped holders were allowed to stand at 40° C. for four months. Thereafter, the content of each vitamin in each holder was measured through HPLC. The content of each vitamin is represented by a percentage (%) of the initially incorporated amount.

[2] = Vitamin content of transfusion products of Examples 1 and 2 after four-month storage
Description: In a holder produced from a polyethylene film having a thickness of 30 μm, solution (C) (4 ml) was charged and the inlet was melt-sealed, to thereby obtain a holder for the solution containing vitamin D3. The surface area of a solution-holding portion of the holder was 16 cm^2 and the volume of polyethylene constituting the solution-holding portion was 0.048 cm^3.
In a polyethylene-made two-compartment container (see FIG. 2), the above-described holder for vitamin D3 solution had been previously attached to one of the compartments. Solution (A) (600 ml) and solution (B) (300 ml) were charged into two compartments separately in an atmosphere replaced with nitrogen, and the container was sealed. Subsequently, the container was subjected to autoclaving through a customary method, to thereby obtain a transfusion product. The transfusion product was wrapped in a light-shielding nylon multi-layer bag together with a deoxidizing agent (trade name: Ageless, product of Mitsubishi Gas Chem. Co., Inc.).
In the same manner as in Example 1, solution (A), solution (B), and solution (C), having the compositions shown in Table 2, were prepared, and these solutions were charged into a holder and two compartments of a transfusion fluid container as described in Example 1. Subsequently, the container was subjected to autoclaving, to thereby obtain a transfusion product. […]

[3] = Vitamin contents in transfusion fluid containers of Examples 4 and 5 after autoclaving and 40° C. four-month storage, bioassay (vitamin B12, biotin) or HPLC (other vitamins)
Description: In a holder produced from a three-layered film (the thickness of each layer: 10 μm) in which the outer and the inner layers are made of polyethylene and the intermediate layer is made of ethylene.tetracyclododecene copolymer (trade name: Apel, product of Mitsui Chemicals, Inc.), solution (C) (4 ml) was charged and the inlet was melt-sealed. In a two-compartment container, the prepared holder was attached to one of the compartments. […] The above-described transfusion fluid containers in Examples 4 and 5 were allowed to stand at 40° C. for four months after autoclaving. Thereafter, the contents of vitamins in the containers were measured through a bioassay according to Pharmacopoeia of Japan (for vitamin B12 and biotin) or through HPLC (for other vitamins). The content of each vitamin is represented by a percentage (%) of the initially incorporated amount.

## C=C1CC[C@H](O)C/C1=C/C=C1\CCC[C@]2(C)[C@@H]([C@H](C)CCCC(C)C)CC[C@@H]12 [Vitamin D3, cholecalciferol]
[1]; holder No. 1, polyethylene, 30 μm, resin 7.4 cm^3 per μmol vitamin D, 40° C., 4 months
  Vitamin content (%) of initially incorporated amount: 86.2%
[1]; holder No. 1, polyethylene, 30 μm, resin 7.4 cm^3 per μmol vitamin D, after sterilization
  Vitamin content (%) of initially incorporated amount: 95.4%
[1]; holder No. 2, polyethylene, 100 μm, resin 18.5 cm^3 per μmol vitamin D, 40° C., 4 months
  Vitamin content (%) of initially incorporated amount: 81.3%
[1]; holder No. 2, polyethylene, 100 μm, resin 18.5 cm^3 per μmol vitamin D, after sterilization
  Vitamin content (%) of initially incorporated amount: 94.6%
[1]; holder No. 3, polypropylene, 30 μm, resin 7.4 cm^3 per μmol vitamin D, 40° C., 4 months
  Vitamin content (%) of initially incorporated amount: 85.8%
[1]; holder No. 3, polypropylene, 30 μm, resin 7.4 cm^3 per μmol vitamin D, after sterilization
  Vitamin content (%) of initially incorporated amount: 96.2%
[1]; holder No. 4, polyethylene, 250 μm, resin 123.2 cm^3 per μmol vitamin D, 40° C., 4 months
  Vitamin content (%) of initially incorporated amount: 66.3%
[1]; holder No. 4, polyethylene, 250 μm, resin 123.2 cm^3 per μmol vitamin D, 40° C., 4 months, listed as vitamin D3
  Vitamin content (%) of initially incorporated amount: fell outside the acceptable range
[1]; holder No. 4, polyethylene, 250 μm, resin 123.2 cm^3 per μmol vitamin D, after sterilization
  Vitamin content (%) of initially incorporated amount: 89.8%
[1]; holder No. 5, polypropylene, 250 μm, resin 123.2 cm^3 per μmol vitamin D, 40° C., 4 months
  Vitamin content (%) of initially incorporated amount: 69.1%
[1]; holder No. 5, polypropylene, 250 μm, resin 123.2 cm^3 per μmol vitamin D, 40° C., 4 months, listed as vitamin D3
  Vitamin content (%) of initially incorporated amount: fell outside the acceptable range
[1]; holder No. 5, polypropylene, 250 μm, resin 123.2 cm^3 per μmol vitamin D, after sterilization
  Vitamin content (%) of initially incorporated amount: 87.5%
[2]
  Vitamin content after storage (acceptable range ≧80%): ≥ 80%
[3]; Example 4 transfusion fluid container, 40° C., 4 months
  Vitamin content, percentage (%) of the initially incorporated amount: 88.7%
[3]; Example 4 transfusion fluid container, immediately after sterilization
  Vitamin content, percentage (%) of the initially incorporated amount: 89.8%
[3]; Example 5 transfusion fluid container, 40° C., 4 months
  Vitamin content, percentage (%) of the initially incorporated amount: 89.6%
[3]; Example 5 transfusion fluid container, immediately after sterilization
  Vitamin content, percentage (%) of the initially incorporated amount: 90.1%
